The values that follow come from ChEMBL document CHEMBL1151581, “New dipeptide isosteres useful for the inhibition of HIV-1 protease” (Bioorg Med Chem Lett, 1994).

One assay relates to CCRF-CEM. The experiment in a line: Concentration required for antiviral activity using infected CEM cells. It is filed as functional, cell-based. The conditions noted are these: Homo sapiens.
Assay [1] addresses Human immunodeficiency virus type 1 protease (Human immunodeficiency virus 1, UniProt Q72874). Nature of the assay: Concentration required for in vitro inhibition of HIV-1 protease.

`CC(C)(C)NC(=O)c1cc2ccccc2cc1C[C@@H](O)[C@H](Cc1ccccc1)NC(=O)[C@H](CC(N)=O)NC(=O)c1ccc2ccccc2n1`: the IC50 came out at 980 nM with CCRF-CEM and 149 nM in assay [1].
The matching figures for `CC(C)(C)NC(=O)c1c(C[C@@H](O)[C@H](Cc2ccccc2)NC(=O)[C@H](CC(N)=O)NC(=O)c2ccc3ccccc3n2)ccc2ccccc12`: 190 nM and 3.5 nM.
With `Cc1ccc(C[C@@H](O)[C@H](Cc2ccccc2)NC(=O)[C@H](CC(N)=O)NC(=O)c2ccc3ccccc3n2)c(C(=O)NC(C)(C)C)c1`, the half-maximal inhibitory concentration (IC50) with CCRF-CEM came out at 20 nM.
Regarding `Cc1ccc(C(=O)NC(C)(C)C)c(C[C@@H](O)[C@H](Cc2ccccc2)NC(=O)[C@H](CC(N)=O)NC(=O)c2ccc3ccccc3n2)c1`, the IC50 is 610 nM in the assay on CCRF-CEM and 2.2 nM in assay [1].
In the same order, the values of `Cc1cccc(C[C@@H](O)[C@H](Cc2ccccc2)NC(=O)[C@H](CC(N)=O)NC(=O)c2ccc3ccccc3n2)c1C(=O)NC(C)(C)C` are 920 nM and 28 nM.
